Values quoted from earlier work, collected in US4801604A (priority 1987, dated 1989).

Details: phenytoin and structurally related drugs

SMILES: O=C1NC(=O)C(c2ccccc2)(c2ccccc2)N1 [phenytoin]
- Side effects (in words): hyperplasia of the gums, cerebellar degeneration, gastric distress and serious skin rashes
